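The compound was tested at five concentrations on cells cultured in 96-well plates, with a 48-hour exposure period. The concentration for 50% growth inhibition is given as GI50.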 Activity calls are given as the source filed them. No stated cut-off is given here; in the data, active = GI50 up to about 1.1 µM and inactive = higher.
Assays:
Experiment in all cases: growth of human tumour cells (NCI), 48 h
DLD-1 = system: DLD-1
DMS-114 = system: DMS-114
DMS-273 = system: DMS-273
HOP-18 = system: HOP-18
KM-20L2 = system: KM-20L2
LXFL 529 = system: LXFL 529
M19-MEL = system: M19-MEL
RXF 631 = system: RXF 631
SNB-78 = system: SNB-78

CCOC(=O)/C(C#N)=C(O)/C(=C\c1ccc(Br)cc1)NC(=O)c1ccccc1
GI50 (DLD-1): > 100 µM (inactive)
GI50 (DMS-114): > 100 µM (inactive)
GI50 (DMS-273): > 100 µM (inactive)
GI50 (HOP-18): > 100 µM (inactive)
GI50 (KM-20L2): > 100 µM (inactive)
GI50 (LXFL 529): > 100 µM (inactive)
GI50 (M19-MEL): > 100 µM (inactive)
GI50 (RXF 631): > 100 µM (inactive)
GI50 (SNB-78): > 100 µM (inactive)

COc1ccc2occ(CCC(=O)O)c2c1
GI50 (DLD-1): > 100 µM (inactive)
GI50 (DMS-114): > 100 µM (inactive)
GI50 (DMS-273): > 100 µM (inactive)
GI50 (HOP-18): > 100 µM (inactive)
GI50 (KM-20L2): > 100 µM (inactive)
GI50 (LXFL 529): > 100 µM (inactive)
GI50 (M19-MEL): > 100 µM (inactive)
GI50 (SNB-78): > 100 µM (inactive)

Nc1nc(Cl)cc(NCCCCCNc2cc(Cl)nc(N)n2)n1
GI50 (DLD-1): > 100 µM (inactive)
GI50 (DMS-273): > 100 µM (inactive)
GI50 (HOP-18): > 100 µM (inactive)
GI50 (KM-20L2): > 100 µM (inactive)
GI50 (LXFL 529): 26.9 µM (inactive)
GI50 (RXF 631): > 100 µM (inactive)
GI50 (SNB-78): 31.3 µM (inactive)

Cc1cccc(C)c1NC(=O)CCC/C(CC(=O)c1ccc(F)cc1)=N\NC(=O)C(=O)NN
GI50 (DLD-1): > 100 µM (inactive)
GI50 (DMS-114): > 100 µM (inactive)
GI50 (DMS-273): > 100 µM (inactive)
GI50 (HOP-18): > 100 µM (inactive)
GI50 (KM-20L2): > 100 µM (inactive)
GI50 (LXFL 529): > 100 µM (inactive)
GI50 (M19-MEL): > 100 µM (inactive)
GI50 (RXF 631): > 100 µM (inactive)
GI50 (SNB-78): > 100 µM (inactive)

CN(C)CCS/C(=N\c1ccccc1)N1C=COC=C1
GI50 (DLD-1): 17.4 µM (inactive)
GI50 (DMS-114): 14.6 µM (inactive)
GI50 (DMS-273): 18.4 µM (inactive)
GI50 (HOP-18): 59.8 µM (inactive)
GI50 (KM-20L2): 47.1 µM (inactive)
GI50 (LXFL 529): 16.4 µM (inactive)
GI50 (M19-MEL): 17.5 µM (inactive)
GI50 (SNB-78): 26.9 µM (inactive)

O=C1CC[C@@H](S(=O)(=O)c2ccccc2)[C@H](/C=C/c2ccccc2)O1
GI50 (DMS-114): > 100 µM (inactive)
GI50 (HOP-18): > 100 µM (inactive)
GI50 (KM-20L2): > 10 µM (inactive)
GI50 (LXFL 529): > 100 µM (inactive)
GI50 (M19-MEL): > 100 µM (inactive)

COc1cc2c(c(OC)c1)C(=O)C(=O)C(CC1(C)OCCCO1)=C2
GI50 (DLD-1): 2.93 µM (inactive)
GI50 (DMS-114): 3.59 µM (inactive)
GI50 (DMS-273): 13.6 µM (inactive)
GI50 (HOP-18): 10.4 µM (inactive)
GI50 (KM-20L2): 17.9 µM (inactive)
GI50 (LXFL 529): 4.51 µM (inactive)
GI50 (M19-MEL): 2.32 µM (inactive)
GI50 (RXF 631): 17.4 µM (inactive)
GI50 (SNB-78): 9.95 µM (inactive)

Nc1nc2c(c(=O)[nH]1)NC(CO)CN2 (stereo not given)
GI50 (DLD-1): > 100 µM (inactive)
GI50 (DMS-114): 66.8 µM (inactive)
GI50 (DMS-273): > 100 µM (inactive)
GI50 (HOP-18): > 100 µM (inactive)
GI50 (M19-MEL): 63.2 µM (inactive)

O=C(/C=C/c1ccc([N+](=O)[O-])o1)N1CCN(Cc2ccccc2)CC1
GI50 (DLD-1): 5.96 µM (inactive)
GI50 (DMS-114): 12.2 µM (inactive)
GI50 (DMS-273): 9.82 µM (inactive)
GI50 (HOP-18): 22.6 µM (inactive)
GI50 (KM-20L2): 10.9 µM (inactive)
GI50 (LXFL 529): 6.56 µM (inactive)
GI50 (M19-MEL): 6.43 µM (inactive)
GI50 (SNB-78): 17.1 µM (inactive)

COc1cccc(NC(=O)CC(=O)N2N=C(n3ccc4ccccc43)CC2c2ccccc2)c1 (stereo not given)
GI50 (DLD-1): > 100 µM (inactive)
GI50 (DMS-114): > 100 µM (inactive)
GI50 (DMS-273): > 100 µM (inactive)
GI50 (HOP-18): > 100 µM (inactive)
GI50 (KM-20L2): > 100 µM (inactive)
GI50 (LXFL 529): > 100 µM (inactive)
GI50 (M19-MEL): > 100 µM (inactive)
GI50 (SNB-78): > 100 µM (inactive)

CN(C)C(=O)CC(C(=O)O)c1c[nH]c2ccccc12 (stereo not given)
GI50 (DLD-1): > 100 µM (inactive)
GI50 (DMS-114): > 100 µM (inactive)
GI50 (DMS-273): > 100 µM (inactive)
GI50 (KM-20L2): > 100 µM (inactive)
GI50 (LXFL 529): > 100 µM (inactive)
GI50 (M19-MEL): > 100 µM (inactive)
GI50 (RXF 631): > 100 µM (inactive)

CCC(=O)OC1CCn2c1nc1c2C(=O)C(C)=C(NC(C)=O)C1=N (stereo not given)
GI50 (DLD-1): 1.42 µM (inactive)
GI50 (DMS-114): 1.5 µM (inactive)
GI50 (DMS-273): 1.67 µM (inactive)
GI50 (HOP-18): 1.8 µM (inactive)
GI50 (KM-20L2): 1.73 µM (inactive)
GI50 (M19-MEL): 0.186 µM (active)
GI50 (SNB-78): 2.6 µM (inactive)

CC(=O)c1cccc(NC2C(N)C(NC(=O)N(C)C)(C(C)O)C(C)(O)C2(O)COC(=O)c2c(C)cccc2O)c1 (stereo not given)
GI50 (DMS-114): 0.01 µM (active)
GI50 (KM-20L2): 0.01 µM (active)
GI50 (LXFL 529): 0.01 µM (active)
GI50 (M19-MEL): 0.01 µM (active)
GI50 (SNB-78): 0.01 µM (active)

CC1Cc2c(N)nc(NN)nc2NC1=O (stereo not given)
GI50 (DLD-1): > 100 µM (inactive)
GI50 (DMS-114): > 100 µM (inactive)
GI50 (DMS-273): > 100 µM (inactive)
GI50 (HOP-18): > 100 µM (inactive)
GI50 (KM-20L2): > 100 µM (inactive)
GI50 (M19-MEL): > 100 µM (inactive)

C=C(COC(C)=O)CC(/C=C(\C)CC/C=C(\C)CO)OC(C)=O (stereo not given)
GI50 (DLD-1): > 100 µM (inactive)
GI50 (DMS-273): > 100 µM (inactive)
GI50 (KM-20L2): > 100 µM (inactive)
GI50 (LXFL 529): > 100 µM (inactive)
GI50 (M19-MEL): > 100 µM (inactive)
GI50 (RXF 631): > 100 µM (inactive)
GI50 (SNB-78): > 100 µM (inactive)

O=C(Cn1ccnc1[N+](=O)[O-])c1ccccc1
GI50 (DLD-1): > 100 µM (inactive)
GI50 (DMS-273): > 100 µM (inactive)
GI50 (KM-20L2): > 100 µM (inactive)
GI50 (LXFL 529): > 100 µM (inactive)
GI50 (M19-MEL): > 100 µM (inactive)

COC(=O)c1c2cccccc-2c(Cc2c3cccccc-3c(C(=O)OC)c2O)c1O
GI50 (DLD-1): > 100 µM (inactive)
GI50 (DMS-114): > 100 µM (inactive)
GI50 (DMS-273): > 100 µM (inactive)
GI50 (HOP-18): > 100 µM (inactive)
GI50 (KM-20L2): > 100 µM (inactive)
GI50 (M19-MEL): > 100 µM (inactive)
GI50 (SNB-78): > 100 µM (inactive)

COc1ccc2[nH]c3c4c(cc(-c5ccccc5)c3c2c1)C(=O)N(c1ccccc1)C4=O
GI50 (DLD-1): > 53 µM (inactive)
GI50 (DMS-114): > 47.8 µM (inactive)
GI50 (DMS-273): 2.07 µM (inactive)
GI50 (HOP-18): 24.7 µM (inactive)
GI50 (KM-20L2): > 100 µM (inactive)
GI50 (LXFL 529): 18.1 µM (inactive)
GI50 (M19-MEL): 30.5 µM (inactive)
GI50 (SNB-78): 27.2 µM (inactive)

CC(=O)N1CC(=O)NC1=S
GI50 (DLD-1): > 100 µM (inactive)
GI50 (DMS-114): > 100 µM (inactive)
GI50 (DMS-273): > 100 µM (inactive)
GI50 (KM-20L2): > 100 µM (inactive)
GI50 (LXFL 529): > 100 µM (inactive)
GI50 (M19-MEL): > 100 µM (inactive)
GI50 (SNB-78): > 100 µM (inactive)

Cn1cnc([N+](=O)[O-])c1Sc1nccn1-c1cccc2ccccc12
GI50 (DLD-1): 24.2 µM (inactive)
GI50 (DMS-114): 22 µM (inactive)
GI50 (DMS-273): 25.2 µM (inactive)
GI50 (HOP-18): 2.52 µM (inactive)
GI50 (KM-20L2): 64.1 µM (inactive)
GI50 (LXFL 529): 18.5 µM (inactive)
GI50 (M19-MEL): 25.7 µM (inactive)
GI50 (RXF 631): 22.3 µM (inactive)
GI50 (SNB-78): 24.7 µM (inactive)

Cc1ccc(C)c(NC(=O)CCc2n[nH]c(=S)o2)c1
GI50 (DLD-1): > 100 µM (inactive)
GI50 (DMS-114): > 100 µM (inactive)
GI50 (DMS-273): > 100 µM (inactive)
GI50 (HOP-18): > 100 µM (inactive)
GI50 (KM-20L2): > 100 µM (inactive)
GI50 (LXFL 529): > 100 µM (inactive)
GI50 (M19-MEL): > 100 µM (inactive)
GI50 (RXF 631): > 100 µM (inactive)
GI50 (SNB-78): > 100 µM (inactive)

O=C(O)C1=NN=C(C(=O)O)NN1
GI50 (DLD-1): > 100 µM (inactive)
GI50 (DMS-273): > 100 µM (inactive)
GI50 (HOP-18): > 100 µM (inactive)
GI50 (KM-20L2): > 100 µM (inactive)
GI50 (LXFL 529): > 100 µM (inactive)
GI50 (M19-MEL): > 100 µM (inactive)
GI50 (SNB-78): > 100 µM (inactive)
